Experimental data: article PMC7066893 (Aging (Albany NY), 2020)

Molecular target: T1, P-glycoprotein (P-gp) (Homo sapiens, UniProt P08183)
T1 construct: gene ABCB1
Experiment: Pgp-Glo luminescent P-gp ATPase assay; inhibition of paclitaxel-stimulated ATPase at […]
Type: biochemical

T1 sequence (P08183 whole entry): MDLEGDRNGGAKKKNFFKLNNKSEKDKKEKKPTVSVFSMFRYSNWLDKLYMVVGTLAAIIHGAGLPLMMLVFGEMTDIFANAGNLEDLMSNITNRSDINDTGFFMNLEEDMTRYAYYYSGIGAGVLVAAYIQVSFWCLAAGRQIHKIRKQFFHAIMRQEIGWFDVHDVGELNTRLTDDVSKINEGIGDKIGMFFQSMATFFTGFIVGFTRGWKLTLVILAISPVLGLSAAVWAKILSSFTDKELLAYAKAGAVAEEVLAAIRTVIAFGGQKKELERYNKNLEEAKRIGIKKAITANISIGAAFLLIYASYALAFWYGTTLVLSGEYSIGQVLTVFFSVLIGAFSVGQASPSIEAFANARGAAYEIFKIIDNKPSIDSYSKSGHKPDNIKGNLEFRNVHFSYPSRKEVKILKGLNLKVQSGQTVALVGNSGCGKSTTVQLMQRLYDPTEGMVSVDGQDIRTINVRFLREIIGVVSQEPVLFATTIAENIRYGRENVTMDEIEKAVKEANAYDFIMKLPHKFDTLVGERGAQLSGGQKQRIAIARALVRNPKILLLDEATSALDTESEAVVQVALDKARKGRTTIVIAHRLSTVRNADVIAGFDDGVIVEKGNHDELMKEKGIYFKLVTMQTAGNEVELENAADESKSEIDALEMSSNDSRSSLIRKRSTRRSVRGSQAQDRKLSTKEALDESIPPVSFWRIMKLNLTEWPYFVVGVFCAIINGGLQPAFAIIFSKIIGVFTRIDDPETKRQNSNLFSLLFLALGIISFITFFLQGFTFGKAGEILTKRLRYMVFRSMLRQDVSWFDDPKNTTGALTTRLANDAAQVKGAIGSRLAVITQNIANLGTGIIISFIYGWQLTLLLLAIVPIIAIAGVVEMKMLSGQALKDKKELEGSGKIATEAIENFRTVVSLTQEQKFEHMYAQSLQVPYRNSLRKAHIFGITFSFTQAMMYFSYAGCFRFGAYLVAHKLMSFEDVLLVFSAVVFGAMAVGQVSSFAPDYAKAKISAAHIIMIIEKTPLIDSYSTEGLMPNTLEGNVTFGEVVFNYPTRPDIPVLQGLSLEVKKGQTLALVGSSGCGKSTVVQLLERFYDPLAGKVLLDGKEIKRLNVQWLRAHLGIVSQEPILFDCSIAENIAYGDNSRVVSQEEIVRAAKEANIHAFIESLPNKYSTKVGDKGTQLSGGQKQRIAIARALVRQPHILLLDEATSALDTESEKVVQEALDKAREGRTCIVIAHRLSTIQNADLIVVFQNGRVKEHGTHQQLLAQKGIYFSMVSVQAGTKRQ

## C/C1=C\[C@@H]2[C@H](CC[C@@]3(C)O[C@@H]3[C@H]3[C@@H](O)[C@@H](C)C[C@]3(OC(=O)/C=C/c3ccccc3)C1=O)C2(C)C [EM-E-11-4]
  Pgp-Glo luminescent P-gp ATPase assay; inhibition of paclitaxel-stimulated ATPas: These results suggest that EM-E-11-4 hinders P-gp ATPase activity
